The nature of series [1]: in vitro. Particulars: Experiment VIII; 10^−7 M, 37° C.; 1 hour after the beginning of reaction.
A short description of series [2]: in vitro. The following applies: serum, pH 7.1. The procedure:
(§1) After the lapse of a predetermined time, a 30-μl portion was taken out of the reaction solution, transferred into 170 μl of 0.1% aqueous solution of trifluoroacetic acid (TFA), and stored at −80° C. until analysis.
(§2) Quantitative analysis was performed for AM contained in the thus-obtained samples of a reaction mixture with serum or plasma by using specific fluoroimmunoassay (Tosoh Corporation) with two antibodies differing in their recognition sites. […] In the figure, the abscissa represents reaction time (min), and the ordinate represents concentration of AM (UM).
In the figure, the abscissa represents reaction time (min), and the ordinate represents concentration of AM or an AM analog (μM).
In the figure, the abscissa represents the type of AM or an AM analog, and the ordinate represents residual rates of AM or an AM analog (%).

Another series in a line: in vivo. Particulars: male, Wistar, rat, plasma, sc, 50 nmol/kg.
The nature of series [3]: in vitro. Particulars: plasma, pH 7.1. The procedure:
as §1, §2

Series [4] deals with AM type 1 receptor (AMI receptor) (UniProt Q16602 23-461; O60895 43-175, limits assumed). Briefly: cell-based or functional assay.
Chain of AM type 1 receptor (AMI receptor) (Q16602 23-461 limits assumed, chain 1 of 2): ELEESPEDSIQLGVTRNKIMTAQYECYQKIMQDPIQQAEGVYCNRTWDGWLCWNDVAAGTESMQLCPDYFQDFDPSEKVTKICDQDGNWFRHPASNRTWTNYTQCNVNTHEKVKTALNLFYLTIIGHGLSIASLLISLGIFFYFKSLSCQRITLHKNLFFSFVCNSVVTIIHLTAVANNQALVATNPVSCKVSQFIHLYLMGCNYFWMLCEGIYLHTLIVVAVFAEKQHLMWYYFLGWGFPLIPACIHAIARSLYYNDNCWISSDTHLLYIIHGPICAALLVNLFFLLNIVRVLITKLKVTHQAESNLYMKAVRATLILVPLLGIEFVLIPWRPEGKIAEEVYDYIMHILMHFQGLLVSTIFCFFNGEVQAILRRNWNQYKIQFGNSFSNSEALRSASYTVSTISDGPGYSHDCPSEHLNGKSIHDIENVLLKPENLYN
Chain of AM type 1 receptor (AMI receptor) (O60895 43-175 limits assumed, chain 2 of 2): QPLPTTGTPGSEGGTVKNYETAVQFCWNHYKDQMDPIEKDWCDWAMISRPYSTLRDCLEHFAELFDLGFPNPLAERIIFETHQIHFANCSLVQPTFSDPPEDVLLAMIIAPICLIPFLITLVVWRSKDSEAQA

Bridges are numbered along the chain shown (N, C = ends). Where no end group is shown, it is not given here.

Procedure for in vivo: Eight-week-old male Wistar rats were purchased from Charles River Laboratories Japan, Inc. The rats were grown with normal feeds in the absence of specific pathogens under cycles of a 12-hour light period and a 12-hour dark period. […] To determine plasma AM concentrations, 50 nmol/kg of AM or an AM analog was subcutaneously administered. A peripheral blood sample was collected from the tail vein into a test tube (containing 21 μg of aprotinin and 0.3 mg of EDTA-2Na) at predetermined times (0, 15, 30, 60, and 120 minutes after administration). The test tube was centrifuged at 1,700×g to afford plasma.

`CC[C@H](C)[C@H](NC(=O)[C@H](CCC(N)=O)NC(=O)[C@H](Cc1c[nH]cn1)NC(=O)[C@H](C)NC(=O)[C@H](CC(C)C)NC(=O)[C@H](CCCCN)NC(=O)[C@H](CCC(N)=O)NC(=O)[C@@H](NC(=O)[C@@H](NC(=O)[C@@H]1CSSC[C@H](NC(=O)CNC(=O)[C@H](Cc2ccccc2)NC(=O)[C@H](CO)NC(=O)[C@H](CCCNC(=N)N)NC(=O)[C@H](CC(C)C)NC(=O)CNC(=O)[C@H](CCC(N)=O)NC(=O)[C@H](Cc2ccccc2)NC(=O)[C@H](CC(N)=O)NC(=O)[C@H](CC(N)=O)NC(=O)[C@H](CCSC)NC(=O)[C@H](CO)NC(=O)[C@H](CCC(N)=O)NC(=O)[C@H](CCCNC(=N)N)NC(=O)[C@@H](N)Cc2ccc(O)cc2)C(=O)N[C@@H](CCCNC(=N)N)C(=O)N[C@@H](Cc2ccccc2)C(=O)NCC(=O)N[C@@H]([C@@H](C)O)C(=O)N1)[C@@H](C)O)C(C)C)C(=O)N[C@@H](Cc1ccc(O)cc1)C(=O)N[C@@H](CCC(N)=O)C(=O)N[C@@H](Cc1ccccc1)C(=O)N[C@H](C(=O)N[C@@H](CC(=O)O)C(=O)N[C@@H](CCCCN)C(=O)N[C@@H](CC(=O)O)C(=O)N[C@@H](CCCCN)C(=O)N[C@@H](CC(=O)O)C(=O)N[C@@H](CC(N)=O)C(=O)N[C@H](C(=O)N[C@@H](C)C(=O)N1CCC[C@H]1C(=O)N[C@@H](CCCNC(=N)N)C(=O)N[C@@H](CO)C(=O)N[C@@H](CCCCN)C(=O)N[C@H](C(=O)N[C@@H](CO)C(=O)N1CCC[C@H]1C(=O)N[C@@H](CCC(N)=O)C(=O)NCC(=O)N[C@@H](Cc1ccc(O)cc1)C(N)=O)[C@@H](C)CC)C(C)C)[C@@H](C)O` [hAM(1-52), YRQSMNNFQGLRSFGCRFGTCTVQKLAHQIYQFTDKDKDNVAPRSKISPQGY-CONH2, reference compound]: the “presence in reaction mixture with human serum” value in “in vitro [1]” is listed as “substantially disappeared”. Moreover, the amount remaining at 4 h in “in vitro [2]” amounted to 0.2%; in “in vitro [3]”, 85%. For the same molecule, in the series “in vivo”, the half-life was 1.23 h.

B1: [Phe-44]hAM(13-52) (peptide)
peptide: SFGCRFGTCTVQKLAHQIYQFTDKDKDNVAPFSKISPQGY-NH2
modifications: disulfide 4-9; N-terminus assumed
SMILES: CC[C@H](C)[C@H](NC(=O)[C@H](CCC(N)=O)NC(=O)[C@H](Cc1c[nH]cn1)NC(=O)[C@H](C)NC(=O)[C@H](CC(C)C)NC(=O)[C@H](CCCCN)NC(=O)[C@H](CCC(N)=O)NC(=O)[C@@H](NC(=O)[C@@H](NC(=O)[C@@H]1CSSC[C@H](NC(=O)CNC(=O)[C@H](Cc2ccccc2)NC(=O)[C@@H](N)CO)C(=O)N[C@@H](CCCNC(=N)N)C(=O)N[C@@H](Cc2ccccc2)C(=O)NCC(=O)N[C@@H]([C@@H](C)O)C(=O)N1)[C@@H](C)O)C(C)C)C(=O)N[C@@H](Cc1ccc(O)cc1)C(=O)N[C@@H](CCC(N)=O)C(=O)N[C@@H](Cc1ccccc1)C(=O)N[C@H](C(=O)N[C@@H](CC(=O)O)C(=O)N[C@@H](CCCCN)C(=O)N[C@@H](CC(=O)O)C(=O)N[C@@H](CCCCN)C(=O)N[C@@H](CC(=O)O)C(=O)N[C@@H](CC(N)=O)C(=O)N[C@H](C(=O)N[C@@H](C)C(=O)N1CCC[C@H]1C(=O)N[C@@H](Cc1ccccc1)C(=O)N[C@@H](CO)C(=O)N[C@@H](CCCCN)C(=O)N[C@H](C(=O)N[C@@H](CO)C(=O)N1CCC[C@H]1C(=O)N[C@@H](CCC(N)=O)C(=O)NCC(=O)N[C@@H](Cc1ccc(O)cc1)C(N)=O)[C@@H](C)CC)C(C)C)[C@@H](C)O
Regarding B1, the “logarithmic values of 50%-effective concentration (pEC50) for intracellular cAMP concentration-increasing activity” value in series [4] stood at 8.29 pEC50.

Broadly, the amount remaining is what is left of the initial amount, in per cent. The half-life is the time in which the quantity being followed falls by half.

These data come from patent US12637499B2, “Adrenomedullin analog, method for producing the same, and pharmaceutical use thereof” (priority 2020, dated 2026).
